26 compounds from PubChem BioAssay AID330 (DTP/NCI, 2004) can be followed below.

Where “and” joins values, the source holds several entries; their conditions need not be identical. Identical values can stand only once. Inconclusive results and toxic doses are left out.

This assay concerns P388 leukemia ip, CD2F1 mice, survival T/C. Kind of assay: NCI In Vivo Anticancer Drug Screen. Data for tumor model P388 Leukemia (intraperitoneal) in CD2F1 (CDF1) mice. The note with it: endpoint: median survival time, higher = longer survival. The method in brief:
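Mice carrying the transplanted tumor received test compound or vehicle. Survival was recorded in each group, and the value is the treated-group measurement divided by that of the vehicle-treated control group.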

The mark [1] stands for this setting: dose: 50.0 mg/kg/injection, schedule: Q01DX005 (ip), vehicle: Klucel (hydroxypropylcellulose) (HPC).
Setting [2] is: dose: 50.0 mg/kg/injection, schedule: Q01DX009 (ip), vehicle: Klucel (hydroxypropylcellulose) (HPC).
[3] abbreviates: dose: 100.0 mg/kg/injection, schedule: Q01DX009 (ip), vehicle: Klucel (hydroxypropylcellulose) (HPC).
Setting [4] is: dose: 50.0 mg/kg/injection, schedule: Q01DX005 (ip), vehicle: saline with Tween-80.
The mark [5] stands for this setting: dose: 100.0 mg/kg/injection, schedule: Q01DX005 (ip), vehicle: saline with Tween-80.
[6] abbreviates: dose: 60.0 mg/kg/injection, schedule: Q01DX005 (ip), vehicle: saline with Tween-80.
Where [7] appears, read: dose: 120.0 mg/kg/injection, schedule: Q01DX005 (ip), vehicle: saline with Tween-80.
The mark [8] stands for this setting: dose: 25.0 mg/kg/injection, schedule: Q01DX009 (ip), vehicle: saline with Tween-80.
[9] abbreviates: dose: 50.0 mg/kg/injection, schedule: Q01DX009 (ip), vehicle: saline with Tween-80.
The mark [10] stands for this setting: dose: 100.0 mg/kg/injection, schedule: Q01DX009 (ip), vehicle: saline with Tween-80.
[11] abbreviates: dose: 200.0 mg/kg/injection, schedule: Q01DX009 (ip), vehicle: saline with Tween-80.
Setting [12] is: dose: 240.0 mg/kg/injection, schedule: Q01DX005 (ip), vehicle: saline with Tween-80.
The mark [13] stands for this setting: dose: 12.5 mg/kg/injection, schedule: Q01DX009 (ip), vehicle: saline.
[14] abbreviates: dose: 25.0 mg/kg/injection, schedule: Q01DX009 (ip), vehicle: saline.

As for `Cc1c(C)n(-c2ccccc2)c2nc(C)n(-c3ccccc3Cl)c(=N)c12`, the T/C is 97 % of control under setting [1] and 90 % of control (dose: 100.0 mg/kg/injection, schedule: Q01DX005 (ip), vehicle: Klucel (hydroxypropylcellulose) (HPC)).
Turning to `COC(=O)c1cc(NC(=O)NNC(=O)c2ccncc2)cc(C(=O)OC)c1`, the T/C was 100 % of control (dose: 12.5 mg/kg/injection, schedule: Q01DX009 (ip), vehicle: Klucel (hydroxypropylcellulose) (HPC)); 98 % of control (dose: 25.0 mg/kg/injection, schedule: Q01DX009 (ip), vehicle: Klucel (hydroxypropylcellulose) (HPC)); 116 % of control and 98 % of control under setting [2]; 90 % of control under setting [3].
`Cc1ccc(S(=O)(=O)Sc2nnnn2C)cc1`: the T/C by setting is: under setting [2], 106 % of control; under setting [3], 97 % of control.
On to `CCC(=O)Nc1cc(C(F)(F)F)cc2[nH]c(C)nc12`, for which the T/C is, setting by setting: under setting [4], 97 % of control; under setting [5], 99 % of control; (dose: 200.0 mg/kg/injection, schedule: Q01DX005 (ip), vehicle: saline with Tween-80) 100 % of control.
`CCC1([N+](=O)[O-])CN(C)CC2CCCCN2C1` (stereo not drawn): the T/C runs as follows: (dose: 25.0 mg/kg/injection, schedule: Q04DX002 (ip), vehicle: water) 95 % of control; (dose: 50.0 mg/kg/injection, schedule: Q04DX002 (ip), vehicle: water) 101 % of control; (dose: 100.0 mg/kg/injection, schedule: Q04DX002 (ip), vehicle: saline) 100 % of control; (dose: 100.0 mg/kg/injection, schedule: Q04DX002 (ip), vehicle: water) 103 % of control.
For `CCCCCCCCCCCCCCCCSc1ccc(C)cc1`, the T/C was 105 % of control (dose: 25.0 mg/kg/injection, schedule: Q04DX003 (ip), vehicle: other); 95 % of control (dose: 50.0 mg/kg/injection, schedule: Q04DX003 (ip), vehicle: other); 100 % of control (dose: 100.0 mg/kg/injection, schedule: Q04DX003 (ip), vehicle: other).
As for `Cc1ccnc(NCc2ccccn2)c1`, the T/C is 105 % of control under setting [4] and 102 % of control under setting [5].
As for `O=C(Nc1c(Cl)cccc1Cl)Oc1ccc(Cl)cc1`, the T/C under setting [6] was 122 % of control and the T/C under setting [7] was 114 % of control.
On to `CC(C(=O)N1c2ccccc2Sc2ccccc21)[N+](C)(C)C` (stereo not drawn), for which the T/C is, setting by setting: (dose: 12.5 mg/kg/injection, schedule: Q01DX009 (ip), vehicle: saline with Tween-80) 110 % of control; under setting [8], 110 % of control; under setting [9], 100 % of control.
Turning to `CC(C)(C)C(CO)CNc1ccccc1` (stereo not drawn), the T/C is, setting by setting: under setting [2], 110 % of control; under setting [3], 110 % of control; (dose: 200.0 mg/kg/injection, schedule: Q01DX009 (ip), vehicle: Klucel (hydroxypropylcellulose) (HPC)) 107 % of control.
On to `CC1=C(C)C(=O)OC(C(C)(O)C2(O)CC=C3C4CC(O)C5(O)C(O)C=CC(=O)C5(C)C4CCC32C)C1` (stereo not drawn), for which the T/C runs as follows: (dose: 7.75 mg/kg/injection, schedule: Q01DX005 (ip), vehicle: Klucel (hydroxypropylcellulose) (HPC)) 105 % of control; (dose: 15.5 mg/kg/injection, schedule: Q01DX005 (ip), vehicle: Klucel (hydroxypropylcellulose) (HPC)) 105 % of control; (dose: 31.0 mg/kg/injection, schedule: Q01DX005 (ip), vehicle: Klucel (hydroxypropylcellulose) (HPC)) 106 % of control.
In the case of `Cc1noc(C)c1CON`, the T/C was 91 % of control (dose: 75.0 mg/kg/injection, schedule: Q01DX009 (ip), vehicle: saline with Tween-80); 95 % of control (dose: 75.0 mg/kg/injection, schedule: Q04DX003 (ip), vehicle: saline); 95 % of control (dose: 150.0 mg/kg/injection, schedule: Q04DX003 (ip), vehicle: saline); 91 % of control (dose: 300.0 mg/kg/injection, schedule: Q04DX003 (ip), vehicle: saline).
On to `COC(=O)c1cccc(COc2ccc([N+](=O)[O-])cc2Cl)c1`, for which the T/C by setting is: under setting [10], 100 % of control; under setting [11], 100 % of control; (dose: 400.0 mg/kg/injection, schedule: Q01DX009 (ip), vehicle: saline with Tween-80) 110 % of control.
For `C=CCn1c(=O)c2[nH]c(Cl)nc2n(CC)c1=O`, the T/C is 100 % of control and 105 % of control (dose: 16.0 mg/kg/injection, schedule: Q01DX009 (ip), vehicle: Klucel (hydroxypropylcellulose) (HPC)); 106 % of control and 94 % of control (dose: 32.0 mg/kg/injection, schedule: Q01DX009 (ip), vehicle: Klucel (hydroxypropylcellulose) (HPC)); 102 % of control and 106 % of control (dose: 64.0 mg/kg/injection, schedule: Q01DX009 (ip), vehicle: Klucel (hydroxypropylcellulose) (HPC)).
As to `CCOC(=O)/C=C1\CCCn2c1ncc(C(=O)OCC)c2=O`, the T/C is, setting by setting: (dose: 60.0 mg/kg/injection, schedule: Q01DX005 (ip), vehicle: Klucel (hydroxypropylcellulose) (HPC)) 101 % of control; (dose: 120.0 mg/kg/injection, schedule: Q01DX005 (ip), vehicle: Klucel (hydroxypropylcellulose) (HPC)) 100 % of control; (dose: 240.0 mg/kg/injection, schedule: Q01DX005 (ip), vehicle: Klucel (hydroxypropylcellulose) (HPC)) 108 % of control.
Consider `NC(CCCCCCC(N)C(=O)c1ccccc1)C(=O)c1ccccc1` (stereo not drawn), for which the T/C by setting is: under setting [6], 98 % of control; under setting [7], 98 % of control; under setting [12], 91 % of control.
On to `CSNC(C)=O`, for which the T/C runs as follows: under setting [8], 102 % of control; under setting [9], 109 % of control; under setting [10], 111 % of control.
Regarding `COC1(OC)CC=COC1(OC)OC`, the T/C is 103 % of control (dose: 60.0 mg/kg/injection, schedule: Q01DX005 (ip), vehicle: saline); 105 % of control (dose: 120.0 mg/kg/injection, schedule: Q01DX005 (ip), vehicle: saline); 114 % of control (dose: 240.0 mg/kg/injection, schedule: Q01DX005 (ip), vehicle: saline).
On to `COC(=O)C1=C(C)NC(=O)NC1c1ccc(OC)cc1` (stereo not drawn), for which the T/C was 95 % of control (dose: 100.0 mg/kg/injection, schedule: Q04DX003 (ip), vehicle: saline with Tween-80); 95 % of control (dose: 200.0 mg/kg/injection, schedule: Q04DX003 (ip), vehicle: saline with Tween-80); 100 % of control (dose: 400.0 mg/kg/injection, schedule: Q04DX003 (ip), vehicle: saline with Tween-80).
Take `Cc1cccc(C)c1NC(=O)C(Cl)(Cl)Sc1ccc(Cl)cc1Cl`: the T/C reads like this: under setting [9], 100 % of control; under setting [10], 104 % of control; under setting [11], 109 % of control.
As for `CC1CN=C(c2ccc(NC(=O)NCCCNC(=O)Nc3ccc(C4=NCC(C)N4)cc3)cc2)N1` (stereo not drawn), the T/C under setting [1] was 153 % of control and 158 % of control.
As for `Cc1ccc2c(c1)-c1oc(=O)c(C(N)=O)cc1C(C)O2` (stereo not drawn), the T/C runs as follows: under setting [6], 92 % of control; under setting [7], 89 % of control; under setting [12], 87 % of control.
`CCOC(=O)CC1CCCN1` (stereo not drawn): the T/C is 110 % of control (dose: 25.0 mg/kg/injection, schedule: Q01DX005 (ip), vehicle: saline); 101 % of control (dose: 50.0 mg/kg/injection, schedule: Q01DX005 (ip), vehicle: saline); 97 % of control (dose: 100.0 mg/kg/injection, schedule: Q01DX005 (ip), vehicle: saline); 106 % of control (dose: 200.0 mg/kg/injection, schedule: Q01DX005 (ip), vehicle: saline).
As to `Cc1cc2nc(CC(=O)c3cccnc3)c(=O)[nH]c2cc1C`, the T/C runs as follows: (dose: 7.5 mg/kg/injection, schedule: Q01DX005 (ip), vehicle: saline with Tween-80) 100 % of control; (dose: 15.0 mg/kg/injection, schedule: Q01DX005 (ip), vehicle: saline with Tween-80) 94 % of control; (dose: 30.0 mg/kg/injection, schedule: Q01DX005 (ip), vehicle: saline with Tween-80) 92 % of control; under setting [12], 88 % of control.
For `COC(OC)C(C)N1CCCCC1` (stereo not drawn), the T/C is 104 % of control under setting [13]; 97 % of control under setting [14]; 99 % of control and 96 % of control (dose: 50.0 mg/kg/injection, schedule: Q01DX009 (ip), vehicle: saline).
Turning to `NS(=O)(=O)C1CCCCC1`, the T/C was 106 % of control (dose: 3.13 mg/kg/injection, schedule: Q01DX009 (ip), vehicle: saline); 99 % of control (dose: 6.25 mg/kg/injection, schedule: Q01DX009 (ip), vehicle: saline); 106 % of control under setting [13]; 106 % of control under setting [14].
